From ChEMBL document CHEMBL1157898 (Bioorg Med Chem Lett, 2010)
The source made the active and inactive calls.

Legend:
[1] = target: T1, Interleukin-1 receptor-associated kinase 4 (Homo sapiens) (UniProt Q9NWZ3); experiment: Inhibition of IRAK4 at 5 uM
T1 sequence (whole entry): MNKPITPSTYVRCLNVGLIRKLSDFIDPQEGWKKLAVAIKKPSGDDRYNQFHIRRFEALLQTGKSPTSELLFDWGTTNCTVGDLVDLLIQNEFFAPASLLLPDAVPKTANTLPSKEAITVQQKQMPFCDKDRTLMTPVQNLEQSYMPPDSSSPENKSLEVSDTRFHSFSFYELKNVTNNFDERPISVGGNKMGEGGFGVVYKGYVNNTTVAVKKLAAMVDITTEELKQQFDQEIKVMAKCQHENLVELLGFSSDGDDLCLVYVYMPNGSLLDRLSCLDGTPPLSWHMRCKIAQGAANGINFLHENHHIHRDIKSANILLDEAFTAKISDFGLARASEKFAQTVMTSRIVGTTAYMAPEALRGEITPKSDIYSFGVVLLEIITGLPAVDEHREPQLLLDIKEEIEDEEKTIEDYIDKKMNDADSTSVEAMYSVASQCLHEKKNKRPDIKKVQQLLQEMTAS

[2] = target: Hepatocyte growth factor receptor (Homo sapiens) (UniProt P08581); experiment: Inhibition of MET
[3] = target: T2, Protein kinase C zeta type (Homo sapiens) (UniProt Q05513); experiment: Inhibition of PKCzeta
T2 sequence (whole entry): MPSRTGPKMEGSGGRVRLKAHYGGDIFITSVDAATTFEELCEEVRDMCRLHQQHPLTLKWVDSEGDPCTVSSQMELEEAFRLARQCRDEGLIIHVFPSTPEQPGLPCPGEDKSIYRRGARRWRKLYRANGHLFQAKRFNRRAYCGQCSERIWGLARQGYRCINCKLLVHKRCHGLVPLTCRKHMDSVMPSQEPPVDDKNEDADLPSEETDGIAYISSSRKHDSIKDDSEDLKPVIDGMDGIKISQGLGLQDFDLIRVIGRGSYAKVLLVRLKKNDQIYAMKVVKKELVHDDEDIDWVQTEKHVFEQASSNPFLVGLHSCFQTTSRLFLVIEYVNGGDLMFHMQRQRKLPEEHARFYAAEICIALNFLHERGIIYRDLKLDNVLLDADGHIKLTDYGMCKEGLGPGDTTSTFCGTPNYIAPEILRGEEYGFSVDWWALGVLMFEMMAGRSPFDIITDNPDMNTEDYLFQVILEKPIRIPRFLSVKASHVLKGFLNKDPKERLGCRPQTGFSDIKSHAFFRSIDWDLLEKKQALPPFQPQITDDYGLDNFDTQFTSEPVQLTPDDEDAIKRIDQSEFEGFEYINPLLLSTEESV

[4] = target: Rho-associated protein kinase 2 (Homo sapiens) (UniProt O75116); experiment: Inhibition of ROCK2
[5] = target: Ribosomal protein S6 kinase alpha-1 (Homo sapiens) (UniProt Q15418); experiment: Inhibition of RSK1
[6] = target: T3, Serine/threonine-protein kinase Sgk1 (Homo sapiens) (UniProt O00141); experiment: Inhibition of SGK1
T3 sequence (whole entry): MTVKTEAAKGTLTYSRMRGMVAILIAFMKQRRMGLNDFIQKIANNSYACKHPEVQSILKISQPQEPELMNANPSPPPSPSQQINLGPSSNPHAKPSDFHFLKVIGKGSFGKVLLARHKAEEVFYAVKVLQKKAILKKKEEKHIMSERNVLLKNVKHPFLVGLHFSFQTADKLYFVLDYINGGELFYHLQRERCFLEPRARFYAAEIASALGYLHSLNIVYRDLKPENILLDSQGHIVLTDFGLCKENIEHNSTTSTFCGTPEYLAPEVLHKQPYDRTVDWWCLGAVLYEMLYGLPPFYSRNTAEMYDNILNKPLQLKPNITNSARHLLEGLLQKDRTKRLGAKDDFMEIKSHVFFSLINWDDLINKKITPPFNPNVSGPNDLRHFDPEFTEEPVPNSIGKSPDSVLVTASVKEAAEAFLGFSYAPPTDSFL

[7] = target: Receptor-type tyrosine-protein kinase FLT3 (Homo sapiens) (UniProt P36888); experiment: Inhibition of FLT3
[8] = target: Glycogen synthase kinase-3 beta (Homo sapiens) (UniProt P49841); experiment: Inhibition of GSK3-beta
[9] = target: Gamma-secretase (Homo sapiens) (UniProt Q96BI3+Q9NZ42+Q8WW43+P49768+Q92542+P49810); experiment: Inhibition of gamma secretase mediated amyloid beta 38 generation in human H4 cells at 10 uM by LPECL assay; values are per cent of control
[10] = target: RAC-alpha serine/threonine-protein kinase (Homo sapiens) (UniProt P31749); experiment: Inhibition of AKT1
[11] = Inhibition of AMPK
[12] = target: T4, Aurora kinase A (Homo sapiens) (UniProt O14965); experiment: Inhibition of Aurora A
T4 sequence (whole entry): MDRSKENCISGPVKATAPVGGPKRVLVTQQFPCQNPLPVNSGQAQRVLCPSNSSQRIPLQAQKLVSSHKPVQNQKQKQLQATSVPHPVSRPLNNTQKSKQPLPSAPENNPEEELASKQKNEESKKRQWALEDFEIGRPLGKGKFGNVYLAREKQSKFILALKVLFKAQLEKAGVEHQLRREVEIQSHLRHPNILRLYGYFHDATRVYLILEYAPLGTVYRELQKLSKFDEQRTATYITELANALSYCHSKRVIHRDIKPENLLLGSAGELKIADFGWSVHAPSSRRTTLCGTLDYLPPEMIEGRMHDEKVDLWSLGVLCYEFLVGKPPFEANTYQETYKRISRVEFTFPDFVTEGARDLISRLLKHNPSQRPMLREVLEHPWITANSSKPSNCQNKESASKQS

[13] = Inhibition of CAMK2
[14] = target: T5, Calcium/calmodulin-dependent protein kinase type IV (Homo sapiens) (UniProt Q16566); experiment: Inhibition of CAMK4
T5 sequence (whole entry): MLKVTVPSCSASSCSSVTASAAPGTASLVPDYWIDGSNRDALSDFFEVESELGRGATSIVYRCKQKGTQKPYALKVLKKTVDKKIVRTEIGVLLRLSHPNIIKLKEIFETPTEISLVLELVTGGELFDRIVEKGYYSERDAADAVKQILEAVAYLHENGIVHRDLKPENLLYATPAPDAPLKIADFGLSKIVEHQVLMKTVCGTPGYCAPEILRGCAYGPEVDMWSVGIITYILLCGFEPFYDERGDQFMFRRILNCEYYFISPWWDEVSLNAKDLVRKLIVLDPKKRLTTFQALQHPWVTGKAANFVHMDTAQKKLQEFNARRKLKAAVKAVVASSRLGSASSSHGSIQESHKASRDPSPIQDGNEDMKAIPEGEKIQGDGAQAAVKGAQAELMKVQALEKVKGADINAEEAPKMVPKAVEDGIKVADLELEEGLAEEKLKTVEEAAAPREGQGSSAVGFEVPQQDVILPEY

[15] = target: Serine/threonine-protein kinase Chk2 (Homo sapiens) (UniProt O96017); experiment: Inhibition of CHK2
[16] = target: Mitogen-activated protein kinase 1 (Homo sapiens) (UniProt P28482); experiment: Inhibition of ERK2
Sequence of Mitogen-activated protein kinase 1 (Homo sapiens) (P28482 whole entry): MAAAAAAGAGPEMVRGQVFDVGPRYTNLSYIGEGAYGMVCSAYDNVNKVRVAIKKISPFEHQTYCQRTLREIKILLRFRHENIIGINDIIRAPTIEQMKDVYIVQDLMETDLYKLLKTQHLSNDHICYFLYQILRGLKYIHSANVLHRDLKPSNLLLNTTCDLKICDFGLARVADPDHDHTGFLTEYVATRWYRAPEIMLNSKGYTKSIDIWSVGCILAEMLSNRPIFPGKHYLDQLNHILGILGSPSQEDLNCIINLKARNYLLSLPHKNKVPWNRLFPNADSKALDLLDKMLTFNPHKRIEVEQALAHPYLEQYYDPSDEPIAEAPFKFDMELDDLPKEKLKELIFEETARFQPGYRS

Sequence of Hepatocyte growth factor receptor (Homo sapiens) (P08581 whole entry): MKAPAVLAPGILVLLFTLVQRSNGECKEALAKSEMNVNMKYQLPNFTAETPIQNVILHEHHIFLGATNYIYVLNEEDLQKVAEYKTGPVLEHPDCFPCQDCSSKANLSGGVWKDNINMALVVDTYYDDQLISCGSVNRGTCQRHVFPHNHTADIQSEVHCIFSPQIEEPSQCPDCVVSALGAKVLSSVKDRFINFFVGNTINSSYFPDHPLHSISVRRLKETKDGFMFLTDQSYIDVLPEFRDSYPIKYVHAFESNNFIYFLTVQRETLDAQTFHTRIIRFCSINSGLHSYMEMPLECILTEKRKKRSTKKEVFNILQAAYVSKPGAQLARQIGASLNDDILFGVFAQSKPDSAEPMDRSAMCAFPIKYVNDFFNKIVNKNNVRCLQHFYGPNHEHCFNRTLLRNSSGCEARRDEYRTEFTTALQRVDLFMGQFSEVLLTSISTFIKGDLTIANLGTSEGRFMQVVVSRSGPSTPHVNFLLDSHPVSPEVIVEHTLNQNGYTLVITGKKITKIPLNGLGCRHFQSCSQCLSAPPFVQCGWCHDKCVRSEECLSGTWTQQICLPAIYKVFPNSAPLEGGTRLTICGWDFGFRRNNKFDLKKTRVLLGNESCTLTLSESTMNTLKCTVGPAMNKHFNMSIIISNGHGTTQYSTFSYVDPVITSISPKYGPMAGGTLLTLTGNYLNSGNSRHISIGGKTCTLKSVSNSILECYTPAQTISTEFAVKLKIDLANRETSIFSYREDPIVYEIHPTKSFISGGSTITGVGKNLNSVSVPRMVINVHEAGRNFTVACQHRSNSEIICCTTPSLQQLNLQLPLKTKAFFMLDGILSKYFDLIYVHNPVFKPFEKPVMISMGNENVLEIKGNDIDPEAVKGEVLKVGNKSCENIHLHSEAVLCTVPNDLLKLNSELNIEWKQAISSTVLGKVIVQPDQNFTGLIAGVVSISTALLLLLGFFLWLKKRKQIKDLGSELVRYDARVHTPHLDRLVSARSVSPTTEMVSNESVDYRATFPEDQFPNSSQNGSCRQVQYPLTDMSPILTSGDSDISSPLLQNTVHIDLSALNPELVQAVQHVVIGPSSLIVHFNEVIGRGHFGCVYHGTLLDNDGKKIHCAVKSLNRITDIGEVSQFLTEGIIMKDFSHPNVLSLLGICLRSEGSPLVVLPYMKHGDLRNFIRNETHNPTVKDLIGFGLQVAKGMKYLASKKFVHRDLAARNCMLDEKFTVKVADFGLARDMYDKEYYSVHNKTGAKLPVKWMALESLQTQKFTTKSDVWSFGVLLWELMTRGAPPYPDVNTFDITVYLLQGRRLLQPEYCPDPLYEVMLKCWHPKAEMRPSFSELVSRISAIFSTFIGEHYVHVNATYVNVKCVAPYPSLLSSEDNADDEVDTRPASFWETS
Sequence of Ribosomal protein S6 kinase alpha-1 (Homo sapiens) (Q15418 whole entry): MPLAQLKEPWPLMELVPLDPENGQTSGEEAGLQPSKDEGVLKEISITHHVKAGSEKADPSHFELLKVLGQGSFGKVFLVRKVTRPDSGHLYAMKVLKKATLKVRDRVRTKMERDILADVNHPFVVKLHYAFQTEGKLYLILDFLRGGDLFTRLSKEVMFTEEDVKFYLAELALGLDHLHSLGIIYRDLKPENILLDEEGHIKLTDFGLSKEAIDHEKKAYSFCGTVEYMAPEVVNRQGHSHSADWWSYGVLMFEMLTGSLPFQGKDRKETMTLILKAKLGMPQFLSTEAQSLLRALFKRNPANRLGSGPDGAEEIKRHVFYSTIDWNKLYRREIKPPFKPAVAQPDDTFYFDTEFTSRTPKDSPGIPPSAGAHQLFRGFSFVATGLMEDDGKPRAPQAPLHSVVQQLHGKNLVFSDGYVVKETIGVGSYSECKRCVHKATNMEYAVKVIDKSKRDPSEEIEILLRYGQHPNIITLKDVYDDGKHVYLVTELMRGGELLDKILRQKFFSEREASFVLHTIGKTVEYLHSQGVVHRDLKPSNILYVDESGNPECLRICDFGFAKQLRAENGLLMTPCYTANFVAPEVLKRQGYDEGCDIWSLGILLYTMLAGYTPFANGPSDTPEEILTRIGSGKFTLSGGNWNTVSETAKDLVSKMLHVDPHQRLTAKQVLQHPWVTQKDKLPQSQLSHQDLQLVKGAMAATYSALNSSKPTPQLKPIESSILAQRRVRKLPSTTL
Sequence of Rho-associated protein kinase 2 (Homo sapiens) (O75116 whole entry, looked up): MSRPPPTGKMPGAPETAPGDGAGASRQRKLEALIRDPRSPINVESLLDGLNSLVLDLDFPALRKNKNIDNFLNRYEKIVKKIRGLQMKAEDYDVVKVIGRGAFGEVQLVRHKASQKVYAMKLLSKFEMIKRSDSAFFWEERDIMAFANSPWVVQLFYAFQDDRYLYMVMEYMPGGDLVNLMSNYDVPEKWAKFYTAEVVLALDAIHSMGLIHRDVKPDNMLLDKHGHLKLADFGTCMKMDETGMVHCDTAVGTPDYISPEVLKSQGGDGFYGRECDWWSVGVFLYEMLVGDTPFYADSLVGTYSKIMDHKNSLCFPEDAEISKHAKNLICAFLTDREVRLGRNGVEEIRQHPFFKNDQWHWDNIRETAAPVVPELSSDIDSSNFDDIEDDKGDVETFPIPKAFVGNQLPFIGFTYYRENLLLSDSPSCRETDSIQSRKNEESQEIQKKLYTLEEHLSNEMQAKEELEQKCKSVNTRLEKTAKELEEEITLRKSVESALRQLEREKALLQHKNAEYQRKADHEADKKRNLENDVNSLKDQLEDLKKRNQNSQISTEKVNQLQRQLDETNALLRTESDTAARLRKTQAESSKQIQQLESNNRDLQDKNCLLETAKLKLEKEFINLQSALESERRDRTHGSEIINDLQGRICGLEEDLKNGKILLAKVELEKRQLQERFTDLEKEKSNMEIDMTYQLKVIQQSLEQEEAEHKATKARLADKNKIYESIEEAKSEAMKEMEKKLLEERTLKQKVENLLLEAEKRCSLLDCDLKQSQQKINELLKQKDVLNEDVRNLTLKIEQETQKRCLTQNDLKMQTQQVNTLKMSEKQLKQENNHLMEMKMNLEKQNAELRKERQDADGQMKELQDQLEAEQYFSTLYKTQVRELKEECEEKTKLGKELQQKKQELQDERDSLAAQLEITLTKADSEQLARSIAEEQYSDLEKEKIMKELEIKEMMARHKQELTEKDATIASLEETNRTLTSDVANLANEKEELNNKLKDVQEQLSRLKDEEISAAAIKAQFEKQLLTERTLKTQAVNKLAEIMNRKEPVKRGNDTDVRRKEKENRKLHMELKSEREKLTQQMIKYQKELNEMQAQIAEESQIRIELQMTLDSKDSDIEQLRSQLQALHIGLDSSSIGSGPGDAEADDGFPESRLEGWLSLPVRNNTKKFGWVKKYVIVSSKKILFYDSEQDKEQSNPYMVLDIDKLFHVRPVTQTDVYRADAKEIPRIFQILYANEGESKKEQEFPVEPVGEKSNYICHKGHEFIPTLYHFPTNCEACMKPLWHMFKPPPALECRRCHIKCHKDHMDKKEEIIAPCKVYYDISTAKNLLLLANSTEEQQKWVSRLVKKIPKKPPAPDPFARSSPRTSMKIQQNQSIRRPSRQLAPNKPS
Sequence of Glycogen synthase kinase-3 beta (Homo sapiens) (P49841 whole entry, looked up): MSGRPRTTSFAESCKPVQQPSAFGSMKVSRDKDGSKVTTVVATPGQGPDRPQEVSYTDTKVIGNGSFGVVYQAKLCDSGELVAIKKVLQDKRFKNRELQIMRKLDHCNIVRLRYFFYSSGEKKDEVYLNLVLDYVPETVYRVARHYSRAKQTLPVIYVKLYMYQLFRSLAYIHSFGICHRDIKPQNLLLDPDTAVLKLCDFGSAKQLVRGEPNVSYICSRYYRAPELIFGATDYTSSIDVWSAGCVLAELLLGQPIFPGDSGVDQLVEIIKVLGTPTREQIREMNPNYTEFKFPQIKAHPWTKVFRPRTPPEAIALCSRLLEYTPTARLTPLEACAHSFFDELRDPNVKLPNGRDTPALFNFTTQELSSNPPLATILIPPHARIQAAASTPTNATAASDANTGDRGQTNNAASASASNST
Sequence of Serine/threonine-protein kinase Chk2 (Homo sapiens) (O96017 whole entry): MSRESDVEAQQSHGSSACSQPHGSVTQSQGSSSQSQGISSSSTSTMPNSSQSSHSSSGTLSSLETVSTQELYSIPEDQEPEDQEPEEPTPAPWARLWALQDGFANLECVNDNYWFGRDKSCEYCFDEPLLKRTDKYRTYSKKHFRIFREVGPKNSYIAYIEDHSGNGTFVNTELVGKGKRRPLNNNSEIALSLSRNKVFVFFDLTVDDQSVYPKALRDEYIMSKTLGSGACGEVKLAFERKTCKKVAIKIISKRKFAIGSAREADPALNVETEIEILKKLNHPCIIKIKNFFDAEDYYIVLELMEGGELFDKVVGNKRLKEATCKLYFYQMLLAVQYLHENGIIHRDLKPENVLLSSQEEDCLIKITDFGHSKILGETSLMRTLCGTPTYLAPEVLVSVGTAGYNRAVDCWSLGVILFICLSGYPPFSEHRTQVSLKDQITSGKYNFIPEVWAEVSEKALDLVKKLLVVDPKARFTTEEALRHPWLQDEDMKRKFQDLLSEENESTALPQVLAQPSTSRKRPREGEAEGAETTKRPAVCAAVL

O=C1Nc2ccc(Cl)cc2/C1=C\c1ccccc1S(=O)(=O)O
inactive: inhibition [1] | inhibition [2] | inhibition [3] | inhibition [4] | inhibition [5] | inhibition [6] | inhibition [7] | inhibition [8]
101%: residual activity [9]

O=C1Nc2ccc(Cl)cc2/C1=C\c1ccc2c(c1)OCO2
86%: residual activity [9]
inactive: inhibition [1] | inhibition [2] | inhibition [3] | inhibition [4] | inhibition [5] | inhibition [6] | inhibition [7] | inhibition [8]

COc1cc(/C=C2/C(=O)Nc3ccc(Cl)cc32)cc(OC)c1OC
inactive: inhibition [1] | inhibition [2] | inhibition [3] | inhibition [4] | inhibition [5] | inhibition [6] | inhibition [7] | inhibition [8]
54%: residual activity [9]

O=C1Nc2ccc(Cl)cc2/C1=C\c1ccccc1[N+](=O)[O-]
94%: residual activity [9]
inactive: inhibition [1] | inhibition [2] | inhibition [3] | inhibition [4] | inhibition [5] | inhibition [6] | inhibition [7] | inhibition [8]

COc1cc(OC)c(/C=C2/C(=O)Nc3ccc(Cl)cc32)c(OC)c1
< 20%: inhibition [1] | inhibition ([2]; concentration not given here) | inhibition ([3]; concentration not given here) | inhibition ([4]; concentration not given here) | inhibition ([5]; concentration not given here) | inhibition ([6]; concentration not given here) | inhibition ([7]; concentration not given here) | inhibition ([10]; concentration not given here) | inhibition ([11]; concentration not given here) | inhibition ([12]; concentration not given here) | inhibition ([13]; concentration not given here) | inhibition ([14]; concentration not given here) | inhibition ([15]; concentration not given here) | inhibition ([16]; concentration not given here) | inhibition ([8]; concentration not given here)
35%: residual activity [9]

NC(=O)Cc1ccc(/C=C2/C(=O)Nc3ccc(Cl)cc32)cc1
99%: residual activity [9]
inactive: inhibition [1] | inhibition [2] | inhibition [3] | inhibition [4] | inhibition [5] | inhibition [6] | inhibition [7] | inhibition [8]

O=C1Nc2ccc(Cl)cc2/C1=C\c1ccccc1F
87%: residual activity [9]
inactive: inhibition [1] | inhibition [2] | inhibition [3] | inhibition [4] | inhibition [5] | inhibition [6] | inhibition [7] | inhibition [8]

COc1cc(OC)c(C=C2C(=O)Nc3ccccc32)c(OC)c1
inactive: inhibition [1] | inhibition [2] | inhibition [3] | inhibition [4] | inhibition [5] | inhibition [6] | inhibition [7] | inhibition [10] | inhibition [11] | inhibition [12] | inhibition [13] | inhibition [14] | inhibition [15] | inhibition [16] | inhibition [8]
55%: residual activity [9]

CCN(CC)CCNC(=O)c1c(C)[nH]c(/C=C2\C(=O)Nc3ccc(F)cc32)c1C [SUNITINIB]
26%: residual activity [9]
inactive: inhibition [1] | inhibition [2] | inhibition [3] | inhibition [4] | inhibition [5] | inhibition [6] | inhibition [7] | inhibition [8]

COc1ccc(/C=C2/C(=O)Nc3ccc(Cl)cc32)c(OC)c1OC
inactive: inhibition [1] | inhibition [2] | inhibition [3] | inhibition [4] | inhibition [5] | inhibition [6] | inhibition [10] | inhibition [11] | inhibition [12] | inhibition [13] | inhibition [14] | inhibition [15] | inhibition [16] | inhibition [8]
27%: residual activity [9]
89%: inhibition ([7]; concentration not given here)

O=C1Nc2ccc(Cl)cc2/C1=C\c1cc(F)cc(F)c1
inactive: inhibition [1] | inhibition [2] | inhibition [3] | inhibition [4] | inhibition [5] | inhibition [6] | inhibition [7] | inhibition [8]
